Experimental data published in the NIST ThermoML archive (doi:10.1016/j.jct.2017.08.032).

CCCCn1cc[n+](C)c1.CCOS(=O)(=O)[O-] [1-butyl-3-methyl-1H-imidazolium ethyl sulfate]
101.33 kPa, Liquid
Settings | mass density, Vibrating tube method [kg/m3] | viscosity, Falling or rolling sphere viscometry [mPa·s]
283.15 K | 1193 | 672.1
293.15 K | 1186 | 334
303.15 K | 1180 | 181
313.15 K | 1173 | 110.3
323.15 K | 1166 | 70.37
333.15 K | 1160 | 47.41
343.15 K | 1153 | 33.67
353.15 K | 1146 | 24.88
363.15 K | 1139 | 19.11

CCCCn1cc[n+](C)c1.F[P-](F)(F)(F)(F)F [1-butyl-3-methylimidazolium hexafluorophosphate]
101.33 kPa, Liquid
Settings | mass density, Vibrating tube method [kg/m3] | viscosity, Falling or rolling sphere viscometry [mPa·s]
283.15 K | 1380 | 779.5
293.15 K | 1372 | 345.1
303.15 K | 1363 | 185.1
313.15 K | 1354 | 109.6
323.15 K | 1346 | 69.7
333.15 K | 1339 | 46.59
343.15 K | 1332 | 32.67
353.15 K | 1323 | 23.85
363.15 K | 1314 | 18.03

CCn1cc[n+](C)c1.O=S(=O)([N-]S(=O)(=O)C(F)(F)F)C(F)(F)F
101.33 kPa, Liquid
Settings | mass density, Vibrating tube method [kg/m3] | viscosity, Falling or rolling sphere viscometry [mPa·s]
283.15 K | 1531 | 56.17
293.15 K | 1521 | 37.23
303.15 K | 1510 | 26.55
313.15 K | 1500 | 19.6
323.15 K | 1491 | 15.01
333.15 K | 1483 | 11.84
343.15 K | 1474 | 9.57
353.15 K | 1465 | 7.9
363.15 K | 1455 | 6.65

CCCC[n+]1ccn(C)c1.O=S(=O)([N-]S(=O)(=O)C(F)(F)F)C(F)(F)F
101.33 kPa, Liquid
Settings | mass density, Vibrating tube method [kg/m3] | viscosity, Falling or rolling sphere viscometry [mPa·s]
283.15 K | 1448 | 88.06
293.15 K | 1438 | 54.17
303.15 K | 1428 | 35.88
313.15 K | 1418 | 25.32
323.15 K | 1408 | 18.69
333.15 K | 1399 | 14.34
343.15 K | 1390 | 11.22
353.15 K | 1379 | 8.99
363.15 K | 1370 | 7.38

CCC[N+]1(C)CCCCC1.O=S(=O)([N-]S(=O)(=O)C(F)(F)F)C(F)(F)F
101.33 kPa
Settings | mass density [kg/m3] | viscosity [mPa·s]
283.15 K, Metastable liquid, Falling or rolling sphere viscometry | – | 350.3
283.15 K, Metastable liquid, Vibrating tube method | 1422 | –
293.15 K, Falling or rolling sphere viscometry, Liquid | – | 174.4
293.15 K, Vibrating tube method, Liquid | 1413 | –
303.15 K, Falling or rolling sphere viscometry, Liquid | – | 99.68
303.15 K, Vibrating tube method, Liquid | 1404 | –
313.15 K, Falling or rolling sphere viscometry, Liquid | – | 62.11
313.15 K, Vibrating tube method, Liquid | 1395 | –
323.15 K, Falling or rolling sphere viscometry, Liquid | – | 40.78
323.15 K, Vibrating tube method, Liquid | 1386 | –
333.15 K, Falling or rolling sphere viscometry, Liquid | – | 29.14
333.15 K, Vibrating tube method, Liquid | 1379 | –
343.15 K, Falling or rolling sphere viscometry, Liquid | – | 21.36
343.15 K, Vibrating tube method, Liquid | 1371 | –
353.15 K, Falling or rolling sphere viscometry, Liquid | – | 16.25
353.15 K, Vibrating tube method, Liquid | 1363 | –
363.15 K, Falling or rolling sphere viscometry, Liquid | – | 12.75
363.15 K, Vibrating tube method, Liquid | 1353 | –

C[N+](C)(C)CCO.O=S(=O)([N-]S(=O)(=O)C(F)(F)F)C(F)(F)F [choline bis(trifluoromethylsulfonyl)imide]
101.33 kPa
Settings | mass density [kg/m3] | viscosity [mPa·s]
293.15 K, Metastable liquid, Falling or rolling sphere viscometry | – | 187.9
293.15 K, Metastable liquid, Vibrating tube method | 1539 | –
303.15 K, Metastable liquid, Falling or rolling sphere viscometry | – | 111.5
303.15 K, Metastable liquid, Vibrating tube method | 1530 | –
313.15 K, Falling or rolling sphere viscometry, Liquid | – | 71.05
313.15 K, Vibrating tube method, Liquid | 1520 | –
323.15 K, Falling or rolling sphere viscometry, Liquid | – | 47.94
323.15 K, Vibrating tube method, Liquid | 1511 | –
333.15 K, Falling or rolling sphere viscometry, Liquid | – | 34.09
333.15 K, Vibrating tube method, Liquid | 1504 | –
343.15 K, Falling or rolling sphere viscometry, Liquid | – | 25.6
343.15 K, Vibrating tube method, Liquid | 1495 | –
353.15 K, Falling or rolling sphere viscometry, Liquid | – | 19.61
353.15 K, Vibrating tube method, Liquid | 1486 | –
363.15 K, Falling or rolling sphere viscometry, Liquid | – | 15.43
363.15 K, Vibrating tube method, Liquid | 1476 | –

CCCCn1cc[n+](C)c1.O=S(=O)([O-])C(F)(F)F [1-butyl-3-methylimidazolium trifluoromethanesulfonate]
101.33 kPa, Liquid
Settings | mass density, Vibrating tube method [kg/m3] | viscosity, Falling or rolling sphere viscometry [mPa·s]
283.15 K | 1309 | 183.3
293.15 K | 1301 | 106.5
303.15 K | 1293 | 66.58
313.15 K | 1285 | 44.45
323.15 K | 1277 | 31.17
333.15 K | 1270 | 22.81
343.15 K | 1262 | 17.24
353.15 K | 1254 | 13.48
363.15 K | 1247 | 10.73
